Experimental data reported in US20060111848A1, “Identification and use of cofactor independent phosphoglycerate mutase as a drug target for pathogenic organisms and treatment of the same” (New England Biolabs, Inc., priority 2003, published 2006).

How the values were obtained:
B. malayi iPGM = target: T1, B. malayi iPGM (Brugia malayi, UniProt Q4VWF8); experiment: PGM activity, spectrophotometric NADH-coupled assay, recombinant B. malayi iPGM; type: biochemical; conditions: recombinant enzyme
T1 construct: The full-length iPGMs from C. elegans, B. malayi and Wolbachia were overexpressed in E. coli; His tag (C); made in house; host or cells: E. coli ER2566
Experimental: (§1) The purified CeiPGM, WoliPGM and BmiPGM proteins described in Example 4 were assayed for PGM activity and found to be active. Activity was measured in forward and reverse directions using a standard spectrophotometric assay (White and Fothergill-Gilmore, European J. Biochem. 207:709-714 1992)) as outlined in FIG. 9. In the forward reaction (glycolytic), the conversion of 3-PG to 2-PG is measured, whereas in the reverse direction (gluconeogenic), the conversion of 2-PG to 3-PG is assayed. In both cases, PGM activity was determined indirectly by measuring the consumption of NADH, which is monitored at 340 nm. The amount of NADH being oxidized to NAD corresponds to the amount of enzyme product (2-PG in the forward direction or 3-PG in the reverse direction) yielded in the PGM reaction. Reactions were performed at 30° C. for 5 minutes with data collected at 10-second intervals using a Beckman DU 640 spectrophotometer. In the forward reaction, iPGM was added to 1 ml assay buffer (30 mM Tris-HCl pH 7.0, 5 mM MgSO4, 20 mM KCl, 0.15 mM NADH) containing 1 mM ADP, 10 mM 3-PGA (Sigma P8877, Sigma-Aldrich, St. Louis, Mo.), 2.5 U each of enolase (Sigma E6126, EC 4.2.1.11, Sigma-Aldrich, St. Louis, Mo.), pyruvate kinase (Sigma P7768, EC 2.7.1.40, Sigma-Aldrich, St. Louis, Mo.) and lactate dehydrogenase (Sigma L2518; EC 1.1.1.27, Sigma-Aldrich, St. Louis, Mo.). […]

C. elegans iPGM = target: T2, C. elegans iPGM (Caenorhabditis elegans, UniProt G5EFZ1); experiment: PGM activity, spectrophotometric NADH-coupled assay, recombinant C. elegans iPGM; type: biochemical; conditions: recombinant enzyme
T2 construct: The full-length iPGMs from C. elegans, B. malayi and Wolbachia were overexpressed in E. coli; His tag (C); made in house; host or cells: E. coli ER2566
T2 sequence (G5EFZ1 1-521 isoform G5EFZ1-2): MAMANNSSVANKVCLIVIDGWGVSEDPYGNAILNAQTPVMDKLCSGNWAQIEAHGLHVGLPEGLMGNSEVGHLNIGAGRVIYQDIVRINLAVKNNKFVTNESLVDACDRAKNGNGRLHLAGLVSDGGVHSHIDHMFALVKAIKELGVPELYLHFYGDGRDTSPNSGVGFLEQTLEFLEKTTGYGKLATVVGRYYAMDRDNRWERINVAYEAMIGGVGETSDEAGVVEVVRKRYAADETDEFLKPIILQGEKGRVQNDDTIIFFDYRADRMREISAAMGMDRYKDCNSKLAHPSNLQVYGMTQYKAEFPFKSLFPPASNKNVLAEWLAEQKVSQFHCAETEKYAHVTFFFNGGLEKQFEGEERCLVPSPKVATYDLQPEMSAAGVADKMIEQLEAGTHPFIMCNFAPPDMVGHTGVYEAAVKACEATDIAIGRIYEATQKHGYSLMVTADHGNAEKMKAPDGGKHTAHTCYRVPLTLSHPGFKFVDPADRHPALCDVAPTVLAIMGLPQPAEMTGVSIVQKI
Experimental: as §1

Wolbachia iPGM = experiment: PGM activity, spectrophotometric NADH-coupled assay, recombinant Wolbachia iPGM; type: biochemical; conditions: recombinant enzyme
Experimental: as §1

dPGM = conditions: cited from earlier work
iPGM = conditions: cited from earlier work

T1 sequence (Q4VWF8 whole entry): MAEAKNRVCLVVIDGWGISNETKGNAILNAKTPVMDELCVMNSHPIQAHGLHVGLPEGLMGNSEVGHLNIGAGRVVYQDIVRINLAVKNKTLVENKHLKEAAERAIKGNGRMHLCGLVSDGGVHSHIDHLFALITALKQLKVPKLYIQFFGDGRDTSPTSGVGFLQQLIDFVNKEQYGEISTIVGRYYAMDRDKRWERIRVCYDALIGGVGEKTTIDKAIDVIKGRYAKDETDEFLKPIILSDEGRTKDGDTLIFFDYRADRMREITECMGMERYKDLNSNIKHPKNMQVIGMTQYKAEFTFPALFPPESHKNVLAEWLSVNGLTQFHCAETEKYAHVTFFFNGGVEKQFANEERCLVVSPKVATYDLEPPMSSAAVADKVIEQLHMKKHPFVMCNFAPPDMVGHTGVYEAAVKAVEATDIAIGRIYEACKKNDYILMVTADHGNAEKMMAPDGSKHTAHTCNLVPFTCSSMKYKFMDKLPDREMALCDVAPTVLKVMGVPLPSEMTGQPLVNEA

[O]=[V]([O-])([O-])[O-] [vanadate]
inhibition of PGM activity (B. malayi iPGM): not inhibited
inhibition of PGM activity (C. elegans iPGM): not inhibited
inhibition of PGM activity (Wolbachia iPGM): not inhibited
effect on dPGM activity (dPGM): inhibited
effect on iPGM activity (iPGM): insensitive
